From patent US20110117020A1, “IMAGING DENDRIMER NANOPROBES AND USES THEREOF” (THE TRUSTEES OF THE UNIVERSITY OF PENNSYLVANIA, priority 2008, published 2011)
Marks after values point to notes of the source that are not given here. Values belong to the molecule of their own block, whether it stands above or below them.

Tests used:
[1] = Optical absorption spectra (UV-Vis spectrophotometer); assay type: physicochemical; conditions: for Absorption Q band / Absorption Q band Ig ε / Absorption Soret band / Absorption Soret band Ig ε: Table II; for Absorption log e / Absorption λmax: Table I
Procedure: (§1) Quartz fluorometric cells (Starna, Inc, 1 cm optical path length) were used in optical experiments. Optical spectra were recorded on a Perkin-Elmer Lambda 35 UV-Vis spectrophotometer. Steady state fluorescence and phosphorescence measurements were performed on a SPEX Fluorolog-2 spectrofluorometer (Jobin-Yvon Horiba), equipped with an infra-red enhanced R2658P PMT (Hamamatsu). Emission spectra were obtained using solutions with absorption at the excitation maxima of approximately 0.05 OD. Quantum yields of emission of all the synthesized compounds were measured relative to the fluorescence of tetraphenylporphyrin (φfl=0:11 in deox. C6H6).

[2] = Steady state phosphorescence: emission maxima, quantum yields, lifetimes; assay type: physicochemical; conditions: for Phosphorescence φ: PhCN, deoxygenated, relative to fluorescence of H2TPP in deoxygenated benzene
Procedure: as §1

[3] = solution in PhCN, deoxygenated by Ar-bubbling
[4] = solution in PhCN, deoxygenated by Ar-bubbling, above 900 nm large experimental errors

Absorption log e ([1]; first band): 5.23
Absorption λmax ([1]; first band): 433 nm
Absorption log e ([1]; second band): 5.00
Absorption λmax ([1]; second band): 622 nm
Phosphorescence λmax ([2]; Table I): 791 nm
τ0 ([2]; Table I): 41 μs
φp ([2]; Table I): 0.30
SMILES: O=C(O)c1cc(C(=O)O)cc(C2=C3N=C(C(c4cc(C(=O)O)cc(C(=O)O)c4)=c4c5ccccc5c5[n]4[Pt][n]4c2c2ccccc2c4C(c2cc(C(=O)O)cc(C(=O)O)c2)=C2N=C(C=5c4cc(C(=O)O)cc(C(=O)O)c4)c4ccccc42)c2ccccc23)c1

Absorption log e ([1]; first band): 5.14
Absorption λmax ([1]; first band): 441 nm
Absorption log e ([1]; second band): 5.28
Absorption λmax ([1]; second band): 700 nm
Phosphorescence λmax ([2]; Table I): 923 nm
τ0 ([2]; Table I): 12 μs
φp ([2]; Table I): 0.06
SMILES: O=C(O)c1cc(C(=O)O)cc(C2=C3N=C(C(c4cc(C(=O)O)cc(C(=O)O)c4)=c4c5cc6ccccc6cc5c5[n]4[Pt][n]4c2c2cc6ccccc6cc2c4C(c2cc(C(=O)O)cc(C(=O)O)c2)=C2N=C(C=5c4cc(C(=O)O)cc(C(=O)O)c4)c4cc5ccccc5cc42)c2cc4ccccc4cc23)c1 [Octacarboxytetra naphthoporphyrin Pt, Octacarboxytetra naphthoporphyrin]

The remaining lines, values behind:

SMILES: CCCCOC(=O)c1cc(C(=O)OCCCC)cc(C2=C3N=C(C(c4cc(C(=O)OCCCC)cc(C(=O)OCCCC)c4)=c4c5cc6ccccc6cc5c5[n]4[Pd][n]4c2c2cc6ccccc6cc2c4C(c2cc(C(=O)OCCCC)cc(C(=O)OCCCC)c2)=C2N=C(C=5c4cc(C(=O)OCCCC)cc(C(=O)OCCCC)c4)c4cc5ccccc5cc42)c2cc4ccccc4cc23)c1 [Pd-3-OBu]
Absorption Q band [1]: 716 nm
Absorption Q band Ig ε [1]: 5.29
Absorption Soret band [1]: 458 nm
Absorption Soret band Ig ε [1]: 5.29
Phosphorescence φ [2]: 0.02
Phosphorescence τ0 [2, 3]: 52 μs
Phosphorescence λmax [2, 4]: 961 [c] nm

SMILES: O=C(O)c1cc(C(=O)O)cc(C2=C3N=C(C(c4cc(C(=O)O)cc(C(=O)O)c4)=c4c5ccccc5c5[n]4[Pd][n]4c2c2ccccc2c4C(c2cc(C(=O)O)cc(C(=O)O)c2)=C2N=C(C=5c4cc(C(=O)O)cc(C(=O)O)c4)c4ccccc42)c2ccccc23)c1
Absorption log e ([1]; first band): 5.46
Absorption λmax ([1]; first band): 446 nm
Absorption log e ([1]; second band): 5.00
Absorption λmax ([1]; second band): 635 nm
Phosphorescence λmax ([2]; Table I): 816 nm
τ0 ([2]; Table I): 210 μs
φp ([2]; Table I): 0.09

SMILES: O=C(O)c1cc(C(=O)O)cc(C2=C3C=CC(=N3)C(c3cc(C(=O)O)cc(C(=O)O)c3)=c3ccc4[n]3[Pt][n]3c2ccc3C(c2cc(C(=O)O)cc(C(=O)O)c2)=C2C=CC(=N2)C=4c2cc(C(=O)O)cc(C(=O)O)c2)c1 [Octacarboxyporphyrin Pt, Octacarboxyporphyrin]
Absorption log e ([1]; first band): 5.54
Absorption λmax ([1]; first band): 406 nm
Absorption log e ([1]; second band): 4.50
Absorption λmax ([1]; second band): 512 nm
τ0 ([2]; Table I): 53 μs
φp ([2]; Table I): 0.24

SMILES: CCCCOC(=O)c1cc(C(=O)OCCCC)cc(C2=C3C=CC(=N3)C(c3cc(C(=O)OCCCC)cc(C(=O)OCCCC)c3)=c3ccc4[n]3[Pd][n]3c2ccc3C(c2cc(C(=O)OCCCC)cc(C(=O)OCCCC)c2)=C2C=CC(=N2)C=4c2cc(C(=O)OCCCC)cc(C(=O)OCCCC)c2)c1 [Pd-1-OBu]
Absorption Q band [1]: 526 nm
Absorption Q band Ig ε [1]: 4.57
Absorption Soret band [1]: 422 nm
Absorption Soret band Ig ε [1]: 5.61
Phosphorescence φ [2]: 0.08
Phosphorescence τ0 [2, 3]: 504 μs
Phosphorescence λmax [2, 4]: 696 nm
